From PubChem BioAssay AID248 (DTP/NCI, 2004)
“And” between values parts separate entries of the source, which are not always exact repeats. Equal values may be shown once. Toxic doses and inconclusive results are not listed.

System: L1210 leukemia ip in BDF1 mice, survival T/C
Assay: NCI In Vivo Anticancer Drug Screen. Data for tumor model L1210 Leukemia (intraperitoneal) in B6D2F1 (BDF1) mice
Conditions: endpoint: mean survival time, higher = longer survival
Method in brief: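 Antitumor effect is assessed in tumor-bearing animals. Survival in the compound arm is compared with a vehicle-dosed control arm and expressed as their quotient.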

[1] = dose: 100.0 mg/kg/injection, schedule: Q01DX009 (ip), vehicle: Klucel (hydroxypropylcellulose) (HPC)
[2] = dose: 100.0 mg/kg/injection, schedule: Q04DX003 (ip), vehicle: Klucel (hydroxypropylcellulose) (HPC)
[3] = dose: 200.0 mg/kg/injection, schedule: Q01DX009 (ip), vehicle: Klucel (hydroxypropylcellulose) (HPC)
[4] = dose: 200.0 mg/kg/injection, schedule: Q04DX003 (ip), vehicle: Klucel (hydroxypropylcellulose) (HPC)
[5] = dose: 400.0 mg/kg/injection, schedule: Q01DX009 (ip), vehicle: Klucel (hydroxypropylcellulose) (HPC)
[6] = dose: 400.0 mg/kg/injection, schedule: Q04DX003 (ip), vehicle: Klucel (hydroxypropylcellulose) (HPC)
[7] = dose: 100.0 mg/kg/injection, schedule: Q01DX001 (ip), vehicle: saline
[8] = dose: 150.0 mg/kg/injection, schedule: Q01DX009 (ip), vehicle: saline
[9] = dose: 100.0 mg/kg/injection, schedule: Q01DX009 (ip), vehicle: saline with Tween-80
[10] = dose: 200.0 mg/kg/injection, schedule: Q01DX009 (ip), vehicle: saline with Tween-80
[11] = dose: 400.0 mg/kg/injection, schedule: Q01DX009 (ip), vehicle: saline with Tween-80

Cc1nc(Br)c(Br)n1C
T/C (dose: 25.0 mg/kg/injection, schedule: Q04DX002 (ip), vehicle: Klucel (hydroxypropylcellulose) (HPC)): 110 % of control | T/C (dose: 50.0 mg/kg/injection, schedule: Q01DX009 (ip), vehicle: carboxymethylcellulose (CMC)): 103 % of control and 104 % of control | T/C (dose: 50.0 mg/kg/injection, schedule: Q04DX002 (ip), vehicle: Klucel (hydroxypropylcellulose) (HPC)): 92 % of control | T/C (dose: 100.0 mg/kg/injection, schedule: Q01DX009 (ip), vehicle: carboxymethylcellulose (CMC)): 96 % of control and 118 % of control | T/C (dose: 100.0 mg/kg/injection, schedule: Q04DX002 (ip), vehicle: Klucel (hydroxypropylcellulose) (HPC)): 100 % of control and 91 % of control | T/C (dose: 100.0 mg/kg/injection, schedule: Q04DX002 (ip), vehicle: carboxymethylcellulose (CMC)): 105 % of control | T/C (dose: 100.0 mg/kg/injection, schedule: Q04DX003 (ip), vehicle: carboxymethylcellulose (CMC)): 91 % of control | T/C (dose: 200.0 mg/kg/injection, schedule: Q01DX009 (ip), vehicle: carboxymethylcellulose (CMC)): 96 % of control and 110 % of control | T/C (dose: 200.0 mg/kg/injection, schedule: Q04DX002 (ip), vehicle: carboxymethylcellulose (CMC)): 97 % of control and 105 % of control | T/C (dose: 200.0 mg/kg/injection, schedule: Q04DX003 (ip), vehicle: carboxymethylcellulose (CMC)): 104 % of control

O=C(O)CCC(=O)c1ccc2ccccc2c1
T/C [2]: 100 % of control | T/C [4]: 91 % of control | T/C [6]: 92 % of control

CC1(CNC(=O)C(=O)NCC2(C)CO2)CO1 (stereo unspecified)
T/C (dose: 15.0 mg/kg/injection, schedule: Q01DX009 (ip), vehicle: acetone): 98 % of control | T/C (dose: 23.0 mg/kg/injection, schedule: Q01DX009 (ip), vehicle: acetone): 98 % of control | T/C (dose: 25.0 mg/kg/injection, schedule: Q01DX Z (ip), vehicle: saline): 121 % of control | T/C (dose: 40.0 mg/kg/injection, schedule: Q01DX Z (ip), vehicle: other): 120 % of control | T/C (dose: 50.0 mg/kg/injection, schedule: Q01DX001 (ip), vehicle: saline): 101 % of control | T/C (dose: 50.0 mg/kg/injection, schedule: Q01DX009 (ip), vehicle: saline): 124 % of control | T/C (dose: 50.0 mg/kg/injection, schedule: Q01DX Z (ip), vehicle: saline): 116 % of control | T/C (dose: 50.0 mg/kg/injection, schedule: Q04DX003 (ip), vehicle: saline): 124 % of control | T/C (dose: 100.0 mg/kg/injection, schedule: Q01DX001 (ip), vehicle: acetone): 123 % of control | T/C [7]: 110 % of control and 113 % of control | T/C (dose: 100.0 mg/kg/injection, schedule: Q01DX009 (ip), vehicle: saline): 150 % of control | T/C (dose: 100.0 mg/kg/injection, schedule: Q01DX Z (ip), vehicle: other): 96 % of control | T/C (dose: 132.0 mg/kg/injection, schedule: Q04DX003 (ip), vehicle: saline): 117 % of control | T/C [8]: 157 % of control and 163 % of control | T/C (dose: 150.0 mg/kg/injection, schedule: Q01DX Z (ip), vehicle: carboxymethylcellulose (CMC)): 121 % of control | T/C (dose: 200.0 mg/kg/injection, schedule: Q01DX001 (ip), vehicle: acetone): 119 % of control | T/C (dose: 200.0 mg/kg/injection, schedule: Q01DX001 (ip), vehicle: saline): 120 % of control | T/C (dose: 200.0 mg/kg/injection, schedule: Q04DX003 (ip), vehicle: saline): 157 % of control and 166 % of control | T/C (dose: 225.0 mg/kg/injection, schedule: Q01DX009 (ip), vehicle: saline): 180 % of control | T/C (dose: 225.0 mg/kg/injection, schedule: Q01DX Z (ip), vehicle: carboxymethylcellulose (CMC)): 96 % of control | T/C (dose: 300.0 mg/kg/injection, schedule: Q01DX009 (ip), vehicle: saline): 94 % of control | T/C (dose: 300.0 mg/kg/injection, schedule: Q04DX003 (ip), vehicle: saline): 158 % of control and 189 % of control | T/C (dose: 338.0 mg/kg/injection, schedule: Q01DX Z (ip), vehicle: other): 106 % of control | T/C (dose: 400.0 mg/kg/injection, schedule: Q01DX001 (ip), vehicle: acetone): 204 % of control

CCN1C(=O)CC2CCCC1C2 (stereo unspecified)
T/C [7]: 90 % of control

CCOC(=O)N1C2C=CC(C2)N1C(=O)OCC
T/C (dose: 100.0 mg/kg/injection, schedule: Q04DX002 (sc), vehicle: olive oil, sesame oil, peanut oil): 94 % of control | T/C (dose: 200.0 mg/kg/injection, schedule: Q04DX002 (sc), vehicle: olive oil, sesame oil, peanut oil): 102 % of control | T/C (dose: 400.0 mg/kg/injection, schedule: Q04DX002 (sc), vehicle: olive oil, sesame oil, peanut oil): 97 % of control

CCOc1ccc([N+](=O)[O-])cc1N(C)C(C)=O
T/C (dose: 75.0 mg/kg/injection, schedule: Q01DX001 (ip), vehicle: saline): 102 % of control | T/C (dose: 150.0 mg/kg/injection, schedule: Q01DX001 (ip), vehicle: saline): 102 % of control | T/C (dose: 300.0 mg/kg/injection, schedule: Q01DX001 (ip), vehicle: saline): 107 % of control

CC(C)(C)c1cc(/C=N/NC(=O)CC2CCCCC2)cc(C(C)(C)C)c1O
T/C [9]: 92 % of control | T/C [10]: 92 % of control | T/C [11]: 97 % of control

CCOC(=O)C(C(C)=O)c1cc(NS(=O)(=O)c2ccccc2)ccc1O (stereo unspecified)
T/C [9]: 95 % of control | T/C [10]: 96 % of control | T/C [11]: 93 % of control

COC1CCC(/C(C#N)=C/C2CCC(NC(C)=O)CC2)CC1 (stereo unspecified)
T/C (dose: 100.0 mg/kg/injection, schedule: Q04DX002 (ip), vehicle: saline with Tween-80): 101 % of control | T/C (dose: 200.0 mg/kg/injection, schedule: Q04DX002 (ip), vehicle: saline with Tween-80): 105 % of control | T/C (dose: 400.0 mg/kg/injection, schedule: Q04DX002 (ip), vehicle: saline with Tween-80): 94 % of control

N=N/C(=C\c1c(O)[nH]c2ccccc12)c1ccccc1
T/C (dose: 100.0 mg/kg/injection, schedule: Q04DX002 (ip), vehicle: gum acacia): 92 % of control | T/C (dose: 200.0 mg/kg/injection, schedule: Q04DX002 (ip), vehicle: gum acacia): 89 % of control | T/C (dose: 400.0 mg/kg/injection, schedule: Q04DX002 (ip), vehicle: gum acacia): 100 % of control

CC1=C(Br)C(=O)C(Br)=C(Br)C1=O
T/C (dose: 100.0 mg/kg/injection, schedule: Q04DX003 (ip), vehicle: acetone): 96 % of control

COc1ccc(N=C(C)CC(C)=O)cc1
T/C (dose: 100.0 mg/kg/injection, schedule: Q01DX001 (ip), vehicle: Klucel (hydroxypropylcellulose) (HPC)): 101 % of control | T/C [1]: 108 % of control | T/C (dose: 200.0 mg/kg/injection, schedule: Q01DX001 (ip), vehicle: Klucel (hydroxypropylcellulose) (HPC)): 103 % of control | T/C [3]: 97 % of control | T/C (dose: 400.0 mg/kg/injection, schedule: Q01DX001 (ip), vehicle: Klucel (hydroxypropylcellulose) (HPC)): 101 % of control | T/C [5]: 102 % of control

CN(C)c1ccc(/C=C2\CC/C(=C\c3ccc(N(C)C)cc3)C2=O)cc1
T/C [1]: 105 % of control | T/C [3]: 97 % of control | T/C [5]: 89 % of control

C=C(Cl)CN(CC)CCO
T/C (dose: 100.0 mg/kg/injection, schedule: Q04DX003 (ip), vehicle: saline with Tween-80): 98 % of control | T/C (dose: 200.0 mg/kg/injection, schedule: Q04DX003 (ip), vehicle: saline with Tween-80): 102 % of control | T/C (dose: 400.0 mg/kg/injection, schedule: Q04DX003 (ip), vehicle: saline with Tween-80): 108 % of control

CCOC1OCN(C(C)C)CC1(C)C (stereo unspecified)
T/C (dose: 75.0 mg/kg/injection, schedule: Q01DX009 (ip), vehicle: saline): 110 % of control | T/C [8]: 119 % of control

C=CCOC(=O)C(C)(O)C(Cl)c1ccccc1 (stereo unspecified)
T/C (dose: 100.0 mg/kg/injection, schedule: Q04DX002 (ip), vehicle: saline): 103 % of control | T/C (dose: 200.0 mg/kg/injection, schedule: Q04DX002 (ip), vehicle: saline): 100 % of control | T/C (dose: 400.0 mg/kg/injection, schedule: Q04DX002 (ip), vehicle: saline): 100 % of control

N#CSCc1ccc(CSC#N)c(Cl)c1
T/C (dose: 1.56 mg/kg/injection, schedule: Q01DX009 (ip), vehicle: saline sonified): 97 % of control | T/C (dose: 1.56 mg/kg/injection, schedule: Q04DX003 (ip), vehicle: saline with Tween-80): 101 % of control | T/C (dose: 3.13 mg/kg/injection, schedule: Q01DX009 (ip), vehicle: saline sonified): 109 % of control | T/C (dose: 3.13 mg/kg/injection, schedule: Q04DX003 (ip), vehicle: saline with Tween-80): 109 % of control | T/C (dose: 6.25 mg/kg/injection, schedule: Q01DX009 (ip), vehicle: saline sonified): 111 % of control | T/C (dose: 6.25 mg/kg/injection, schedule: Q04DX003 (ip), vehicle: saline with Tween-80): 109 % of control
